Legend:
DDR2 = molecular target: T1, DDR2 (Homo sapiens, UniProt Q16832); assay: LanthaScreen Europium Kinase Binding assay, DDR2; conditions: 5 nM DDR2, 10 nM Kinase Tracer 178, 1 h at rt; Ki from IC50 by Cheng-Prusoff; read-out: Ki DDR2
T1 construct: purchased Life Technologies
T1 sequence (Q16832 22-855): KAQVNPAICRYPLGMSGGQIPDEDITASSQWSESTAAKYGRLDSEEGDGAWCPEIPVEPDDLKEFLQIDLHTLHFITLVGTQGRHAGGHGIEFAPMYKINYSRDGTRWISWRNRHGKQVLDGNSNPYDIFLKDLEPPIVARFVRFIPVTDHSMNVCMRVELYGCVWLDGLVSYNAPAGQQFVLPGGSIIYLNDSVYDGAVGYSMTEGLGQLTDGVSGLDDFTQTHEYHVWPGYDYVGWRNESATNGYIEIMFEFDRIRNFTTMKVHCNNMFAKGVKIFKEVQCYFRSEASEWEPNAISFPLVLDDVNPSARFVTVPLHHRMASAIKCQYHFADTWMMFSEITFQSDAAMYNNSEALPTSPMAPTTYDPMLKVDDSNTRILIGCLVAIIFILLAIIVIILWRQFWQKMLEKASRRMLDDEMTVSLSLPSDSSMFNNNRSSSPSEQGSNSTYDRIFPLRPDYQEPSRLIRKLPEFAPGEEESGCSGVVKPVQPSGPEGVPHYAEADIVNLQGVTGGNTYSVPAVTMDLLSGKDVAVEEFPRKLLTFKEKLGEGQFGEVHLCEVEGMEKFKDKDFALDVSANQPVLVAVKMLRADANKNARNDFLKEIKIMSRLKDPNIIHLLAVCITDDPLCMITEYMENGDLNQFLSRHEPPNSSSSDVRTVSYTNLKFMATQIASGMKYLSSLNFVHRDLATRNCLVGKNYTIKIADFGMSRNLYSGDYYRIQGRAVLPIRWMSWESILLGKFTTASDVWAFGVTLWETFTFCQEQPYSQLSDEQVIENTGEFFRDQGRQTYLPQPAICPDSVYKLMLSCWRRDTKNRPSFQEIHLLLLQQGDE
Description: (§1) DDR1 and DDR2 binding assays were performed using Life Technologies LanthaScreen™ Europium Kinase Binding assay. […] IC50 values were determined in GraphPad Prism 7.0 software, using 4 parameter model: log (inhibitor) vs. response. IC50 values were converted in Ki using the Cheng-Prusoff equation (Ki-IC50/(1+ [Tracer]/Kd).

DDR1 = molecular target: T2, DDR1 (Homo sapiens, UniProt Q08345); assay: LanthaScreen Europium Kinase Binding assay, DDR1; conditions: 5 nM DDR1, 20 nM Kinase Tracer 178, 1 h at rt; Ki from IC50 by Cheng-Prusoff; read-out: Ki DDR1
T2 construct: purchased Carna Biosciences
T2 sequence (Q08345 19-913): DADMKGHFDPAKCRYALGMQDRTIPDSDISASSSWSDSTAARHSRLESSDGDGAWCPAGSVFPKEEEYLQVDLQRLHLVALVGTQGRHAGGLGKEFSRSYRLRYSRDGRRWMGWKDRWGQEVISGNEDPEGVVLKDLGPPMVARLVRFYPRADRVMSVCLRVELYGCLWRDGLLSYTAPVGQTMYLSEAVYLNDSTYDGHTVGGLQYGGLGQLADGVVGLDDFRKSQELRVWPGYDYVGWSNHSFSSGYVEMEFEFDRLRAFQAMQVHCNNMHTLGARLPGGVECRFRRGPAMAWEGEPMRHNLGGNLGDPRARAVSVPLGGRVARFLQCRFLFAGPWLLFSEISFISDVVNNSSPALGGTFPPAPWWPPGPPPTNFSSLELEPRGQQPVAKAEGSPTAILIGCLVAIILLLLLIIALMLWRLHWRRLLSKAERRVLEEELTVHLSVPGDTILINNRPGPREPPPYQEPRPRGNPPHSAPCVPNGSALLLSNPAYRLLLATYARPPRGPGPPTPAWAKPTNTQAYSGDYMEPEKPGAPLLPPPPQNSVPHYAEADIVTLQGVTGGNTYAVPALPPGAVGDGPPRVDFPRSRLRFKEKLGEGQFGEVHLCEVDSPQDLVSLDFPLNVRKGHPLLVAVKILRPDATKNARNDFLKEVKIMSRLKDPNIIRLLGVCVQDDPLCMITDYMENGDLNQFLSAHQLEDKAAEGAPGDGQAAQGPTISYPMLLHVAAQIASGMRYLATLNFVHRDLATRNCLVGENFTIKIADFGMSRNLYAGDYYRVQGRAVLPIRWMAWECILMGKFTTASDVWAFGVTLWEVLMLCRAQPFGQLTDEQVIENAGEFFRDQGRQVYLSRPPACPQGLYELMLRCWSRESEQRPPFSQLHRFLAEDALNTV
Description: as §1

| Structure (SMILES) | Ki (DDR2) | Ki (DDR1) |
| --- | --- | --- |
| COc1cc(-c2ccc3c(C(=O)N4CC5(CC(N(C)C(=O)Nc6cncc(C(F)(F)F)c6)C5)C4)cnn3c2)ccn1 [Example 236, 1-(2-(6-(2-methoxypyridin-4-yl)pyrazolo[1,5-a]pyridine-3-carbonyl)-2-azaspiro[3.3]heptan-6-yl)-1-methyl-3-(5-(trifluoromethyl)pyridin-3-yl)urea] | 5 to 25 nM | < 5 nM |
| Cc1cc(-c2ccc3c(C(=O)N4CC5(CC(N(C)C(=O)Nc6cncc(C(F)(F)F)c6)C5)C4)cnn3c2)on1 [Example 237, 1-methyl-1-(2-(6-(3-methylisoxazol-5-yl)pyrazolo[1,5-a]pyridine-3-carbonyl)-2-azaspiro[3.3]heptan-6-yl)-3-(5-(trifluoromethyl)pyridin-3-yl)urea] | 5 to 25 nM | < 5 nM |
| CN(C(=O)Nc1cc(C(F)(F)F)ccn1)C1CC2(C1)CN(C(=O)c1cnn3ccccc13)C2 [Example 238, 1-methyl-1-(2-(pyrazolo[1,5-a]pyridine-3-carbonyl)-2-azaspiro[3.3]heptan-6-yl)-3-(4-(trifluoromethyl)pyridin-2-yl)urea] | 5 to 25 nM | < 5 nM |
| CN(C(=O)Nc1cc(OC(F)(F)F)ccn1)C1CC2(C1)CN(C(=O)c1cnn3ccccc13)C2 [Example 239, 1-methyl-1-(2-(pyrazolo[1,5-a]pyridine-3-carbonyl)-2-azaspiro[3.3]heptan-6-yl)-3-(4-(trifluoromethoxy)pyridin-2-yl)urea] | 5 to 25 nM | < 5 nM |
| CN(C(=O)Nc1cncc(C(F)(F)F)c1)C1CC2(C1)CN(C(=O)c1cnn3cc(N4CCCC4)ccc13)C2 [Example 240, 1-methyl-1-(2-(6-(pyrrolidin-1-yl)pyrazolo[1,5-a]pyridine-3-carbonyl)-2-azaspiro[3.3]heptan-6-yl)-3-(5-(trifluoromethyl)pyridin-3-yl)urea] | 5 to 25 nM | 5 to 25 nM |
| CN(C(=O)Nc1cc(C(F)(F)F)ccn1)C1CC2(C1)CN(C(=O)c1cnn3cc(-c4cnn(C)c4)ccc13)C2 [Example 241, 1-methyl-1-(2-(6-(1-methyl-1H-pyrazol-4-yl)pyrazolo[1,5-a]pyridine-3-carbonyl)-2-azaspiro[3.3]heptan-6-yl)-3-(4-(trifluoromethyl)pyridin-2-yl)urea] | 5 to 25 nM | < 5 nM |
| CN(C(=O)Nc1cc(OC(F)(F)F)ccn1)C1CC2(C1)CN(C(=O)c1cnn3cc(-c4cnn(C)c4)ccc13)C2 [Example 242, 1-(2-(6-(1,2-dimethyl-1H-214-pyrazol-4-yl)pyrazolo[1,5-a]pyridine-3-carbonyl)-2-azaspiro[3.3]heptan-6-yl)-1-methyl-3-(4-(trifluoromethoxy)pyridin-2-yl)urea] | 5 to 25 nM | < 5 nM |
| CN(C(=O)Nc1cncc(C(F)(F)F)c1)C1CC2(C1)CN(C(=O)c1cnn3ccc(N)cc13)C2 [Example 244, 1-(2-(5-aminopyrazolo[1,5-a]pyridine-3-carbonyl)-2-azaspiro[3.3]heptan-6-yl)-1-methyl-3-(5-(trifluoromethyl)pyridin-3-yl)urea] | 5 to 25 nM | < 5 nM |
| CN(C(=O)Nc1cncc(C(F)(F)F)c1)C1CC2(C1)CN(C(=O)c1cnn3cc(-c4cncnc4)ccc13)C2 [Example 245, 1-methyl-1-(2-(6-(pyrimidin-5-yl)pyrazolo[1,5-a]pyridine-3-carbonyl)-2-azaspiro[3.3]heptan-6-yl)-3-(5-(trifluoromethyl)pyridin-3-yl)urea] | 5 to 25 nM | < 5 nM |
| Cc1ncc(-c2ccc3c(C(=O)N4CC5(CC(N(C)C(=O)Nc6cncc(C(F)(F)F)c6)C5)C4)cnn3c2)cn1 [Example 246, 1-methyl-1-(2-(6-(2-methylpyrimidin-5-yl)pyrazolo[1,5-a]pyridine-3-carbonyl)-2-azaspiro[3.3]heptan-6-yl)-3-(5-(trifluoromethyl)pyridin-3-yl)urea] | 25 to 100 nM | 5 to 25 nM |
| CN(C(=O)Nc1cccc(C(F)(F)F)c1)C1CC2(C1)CN(C(=O)c1ncnc3[nH]ccc13)C2 [Example 247, 1-(2-(7H-pyrrolo[2,3-d]pyrimidine-4-carbonyl)-2-azaspiro[3.3]heptan-6-yl)-1-methyl-3-(3-(trifluoromethyl)phenyl)urea] | 5 to 25 nM | < 5 nM |
| CN(C(=O)Nc1cccc(C(F)(F)F)c1)C1CC2(C1)CN(C(=O)c1ccnc3[nH]ccc13)C2 [Example 248, 1-(2-(1H-pyrrolo[2,3-b]pyridine-4-carbonyl)-2-azaspiro[3.3]heptan-6-yl)-1-methyl-3-(3-(trifluoromethyl)phenyl)urea] | 5 to 25 nM | < 5 nM |
| CN(C(=O)Nc1cncc(C(F)(F)F)c1)C1CC2(C1)CN(C(=O)c1cnn3cc(-c4ccncc4)ccc13)C2 [Example 249, 1-methyl-1-(2-(6-(pyridin-4-yl)pyrazolo[1,5-a]pyridine-3-carbonyl)-2-azaspiro[3.3]heptan-6-yl)-3-(5-(trifluoromethyl)pyridin-3-yl)urea] | 5 to 25 nM | < 5 nM |
| COc1ccc2c(C(=O)N3CC4(CC(N(C)C(=O)Nc5cncc(C(F)(F)F)c5)C4)C3)cnn2c1 [Example 250, 1-(2-(6-methoxypyrazolo[1,5-a]pyridine-3-carbonyl)-2-azaspiro[3.3]heptan-6-yl)-1-methyl-3-(5-(trifluoromethyl)pyridin-3-yl)urea] | 25 to 100 nM | < 5 nM |
| COc1ccn2ncc(C(=O)N3CC4(CC(N(C)C(=O)Nc5cncc(C(F)(F)F)c5)C4)C3)c2c1 [Example 251, 1-(2-(5-methoxypyrazolo[1,5-a]pyridine-3-carbonyl)-2-azaspiro[3.3]heptan-6-yl)-1-methyl-3-(5-(trifluoromethyl)pyridin-3-yl)urea] | 5 to 25 nM | < 5 nM |
| CN(C(=O)Nc1cncc(C(F)(F)F)c1)C1CC2(C1)CN(C(=O)c1cnn3ccc(N4CCC(F)(F)C4)cc13)C2 [Example 252, 1-(2-(5-(3,3-difluoropyrrolidin-1-yl)pyrazolo[1,5-a]pyridine-3-carbonyl)-2-azaspiro[3.3]heptan-6-yl)-1-methyl-3-(5-(trifluoromethyl)pyridin-3-yl)urea] | 5 to 25 nM | < 5 nM |
| COc1ccc(-c2ccc3c(C(=O)N4CC5(CC(N(C)C(=O)Nc6cncc(C(F)(F)F)c6)C5)C4)cnn3c2)cn1 [Example 253, 1-(2-(6-(6-methoxypyridin-3-yl)pyrazolo[1,5-a]pyridine-3-carbonyl)-2-azaspiro[3.3]heptan-6-yl)-1-methyl-3-(5-(trifluoromethyl)pyridin-3-yl)urea] | 5 to 25 nM | < 5 nM |
| CN(C(=O)Nc1cc(I)ccn1)C1CC2(C1)CN(C(=O)c1cnn3ccn(C)c13)C2 [Example 254, 3-(4-iodopyridin-2-yl)-1-methyl-1-(2-(1-methyl-1H-imidazo[1,2-b]pyrazole-7-carbonyl)-2-azaspiro[3.3]heptan-6-yl)urea] | 5 to 25 nM | < 5 nM |
| CN(C(=O)Nc1cc(C(F)F)ccn1)C1CC2(C1)CN(C(=O)c1cnn3ccsc13)C2 [Example 255, 3-(4-(difluoromethyl)pyridin-2-yl)-1-methyl-1-(2-(pyrazolo[5,1-b]thiazole-7-carbonyl)-2-azaspiro[3.3]heptan-6-yl)urea] | 5 to 25 nM | < 5 nM |
| COc1cc(C(F)(F)F)cc(NC(=O)N(C)C2CC3(C2)CN(C(=O)c2cnn4ccn(C)c24)C3)n1 [Example 256, 3-(6-methoxy-4-(trifluoromethyl)pyridin-2-yl)-1-methyl-1-(2-(1-methyl-1H-imidazo[1,2-b]pyrazole-7-carbonyl)-2-azaspiro[3.3]heptan-6-yl)urea] | 5 to 25 nM | < 5 nM |
| CN(C(=O)Nc1cc(C(F)(F)F)cc(C(F)(F)F)c1)C1CC2(C1)CN(C(=O)c1cnn3ccn(C)c13)C2 [Example 257, 3-(3,5-bis(trifluoromethyl)phenyl)-1-methyl-1-(2-(1-methyl-1H-imidazo[1,2-b]pyrazole-7-carbonyl)-2-azaspiro[3.3]heptan-6-yl)urea] | 5 to 25 nM | < 5 nM |
| Cc1nn(C)cc1-c1ccc2c(C(=O)N3CC4(CC(N(C)C(=O)Nc5cncc(C(F)(F)F)c5)C4)C3)cnn2c1 [Example 258, 1-(2-(6-(1,3-dimethyl-1H-pyrazol-4-yl)pyrazolo[1,5-a]pyridine-3-carbonyl)-2-azaspiro[3.3]heptan-6-yl)-1-methyl-3-(5-(trifluoromethyl)pyridin-3-yl)urea] | 5 to 25 nM | < 5 nM |

— patent US20260285855A1, “HETEROARYL DERIVATIVES AS DDRS INHIBITORS” (CHIESI FARMACEUTICI S.P.A., priority 2023, published 2026)
